Patent US20180055844A1 (Celgene Corporation, priority 2011, published 2018)

Key:
Assay in all cases: Activity against lenalidomide resistant cell lines
Format in all cases: cell-based
1051 = conditions: 1051, n = 3
Procedure: (§1) The ability of compounds to effect the proliferation of MM cell lines was investigated in an in vitro study. Uptake of [^3H]-thymidine by H929 MM cells and 7-AAD uptake in several MM cell lines (H929, U266B1, Anbl-6, KMS-34, OPM-2, DF-15, DF15/R, CAG, MM1.S and LP-1) was measured as an indicator of cell proliferation. Cells were incubated in the presence of compounds for 72 hours ([^3H]-thymidine was included for the last 6 hours of the incubation period) or 5 days followed by 7-AAD uptake to measure and count viable cells.

1052 = conditions: 1052, n = 3
Procedure: as §1

1053 = conditions: 1053, n = 3
Procedure: as §1

1054 = conditions: 1054, n = 3
Procedure: as §1

D1 = conditions: D1, n = 3
Procedure: as §1

H929 = conditions: Homo sapiens, NCI-H929; H929, n = 3
Procedure: as §1

`Nc1cccc2c1CN(C1CCC(=O)NC1=O)C2=O` (stereo not drawn) [Lenolidomide, Lenalidomide, reference compound] was tested, and the IC50 1051 was “No IC50”, the IC50 1052 was “No IC50” and the IC50 1053 was “No IC50”. For the same compound, the IC50 1054 was “No IC50”, the IC50 (D1) was “No IC50” and the IC50 (H929) was 12.6 µM.
